Publication PMC9729826, “Hypoaminoacidemia underpins glucagon-mediated energy expenditure and weight loss” (Cell Reports Medicine, 2022)
Starred links: 1 amine or outer side, 2 acyl side, 3 side chain; linkers in the order of their positions; H or OH if unused. Non-standard residues stand in square brackets, D forms with d. Residues, ends and D or L forms follow the SMILES beside them. Groups on a side chain read outwards from the residue. *: point of attachment. C18 diacid = O=C(O)CCCCCCCCCCCCCCCCC(=O)*; γGlu = O=C(O)[C@H](CCC(=O)[*:2])N[*:1]; Aib = CC(C)(N)C(=O)O

Columns and labels:
Type in all cases: in vivo, mouse
[1] = system: diet-induced obese (DIO) C57BL/6 mice; test: Essential and non-essential amino acid supplementation in G108-treated DIO mice; conditions: 7.5 nmol/kg daily, 14 days, n = 8/group
Source text: Lean 10-week-old C57BL/6 mice (N = 48) were provided ad libitum with a 60 kcal% high fat diet (diet D12492, Table S2) for 8 weeks. They were then provided with either a high fat standard protein diet (SP) (D08091803), a high fat standard protein diet supplemented with essential amino acids (SP + EAA) (Formula 2, Table S3), or a high fat standard protein diet supplemented with non-essential amino acids (SP + NEAA) (Formula 3, Table S3), N = 16/group. Mice from each diet group received either 7.5 nmol/kg G108 or vehicle control resulting in the following six treatment groups, N = 8/group: Vehicle/SP, 7.5 nmol/kg G108/SP, Vehicle/SP +EAA, 7.5 nmol/kg G108/SP + EAA, Vehicle/SP + NEAA, 7.5 nmol/kg G108 + NEAA. Food intake and body weight was measured every 48 h. Prior to commencing their respective diets, baseline body composition analysis was (EchoMRI) was carried out in addition to body composition analysis on day 11. Tail venesection was carried out on day 13 of the study 4 h following respective treatments. […]
To measure energy expenditure, DIO mice were placed into a Comprehensive Laboratory Animal Monitoring System (CLAMS, Columbus instruments, Columbus, US). […] Food intake was also measured electronically without the need to remove food. […] Feed efficiency was calculated as mg body weight change per kJ consumed.

lean C57BL/6 mice [2] = test: Hepatic gene expression 24 h after a single dose in lean mice; conditions: 20 nmol/kg single s.c. dose, liver at 24 h, qPCR, n = 4/group
Description: (§1) Twelve weight-matched 12-week-old lean C57BL/6 mice were fasted for 2 h prior to a single intraperitoneal injection of 10 nmol/kg dose of G108 diluted in sterile HPLC water (pH > 7), or vehicle control alone. Tail venesection was performed at baseline, 15, 30, 60 and 120 min and blood glucose measured using a handheld GlucoRx meter. For hepatic carbohydrate and amino acid metabolism gene expression analysis, weight-matched 12-week-old lean C57BL/6 mice were subcutaneously administered with 20 nmol/kg G108 diluted in sterile HPLC water (pH > 7), or vehicle control via subcutaneous injection at 9 am (N = 8). All animals had ad libitum access to RM1 diet and water. Liver tissue was dissected at 24 h and stored at −80°C prior to hepatic gene expression analysis.
RNA was extracted from liver, muscle and BAT tissue using 1 mL TRIzol added to samples prior to homogenisation within a mechanical homogeniser for 2–3 min. Chloroform was added to each individual sample prior to gentle shaking and centrifugation at 16000 × g for 15 min. […] RNA was quantified in addition to quality assessed using a NanoDrop spectrophotometer and 1 μg of RNA was then used for the synthesis of cDNA using the iScript cDNA synthesis Kit (Bio-Rad). Quantitative polymerase chain reaction (qPCR) was then undertaken using the SYBR-Green method using KiCqStart SYBR Green primers (Merck).

lean C57BL/6 mice [3] = test: 18-day dose-finding study of food intake in lean mice
Description: C57BL/6 mice matched for weight and age (14-week-old, N = 24) were administered via subcutaneous injection at 9 am daily for 18 days, vehicle control or G108 diluted in sterile HPLC water. Ascending doses of either 5 nmol/kg, 10 nmol/kg or 20 nmol/kg G018 were administered. All mice had ad libitum access to RM1 diet (Special Diet Services, UK) and water. Food intake and body weights were recorded daily.
Food intake was measured daily using a dedicated weighing scale and topped up accordingly. Body weight was recorded at 9 am daily or every 48 h using the same weighing scale. Body composition was measured using an EchoMRI analyser at various timepoints during chronic studies. Body composition measurements were taken on the same time of day to reduce intra-animal variability. Animals were placed in a transparent cylindrical Perspex tube and both ends secured with Perspex clips. The tubes containing the animal was then carefully placed into the MRI machine (EchoMRI −100H analyser, EchoMRI). Each scan lasted approximately 90 s where lean mass and fat mass were recorded in grams. Following the scan, the mice were removed from the Perspex tube and returned to their respective cages.

lean C57BL/6 mice [4] = test: Blood glucose after a single dose in lean mice; conditions: 10 nmol/kg single intraperitoneal injection, up to 2 h, n = 6/group
Description: as §1

## CC[C@H](C)[C@H](NC(=O)[C@H](Cc1ccccc1)NC(=O)[C@H](CCC(=O)O)NC(=O)[C@H](CCC(N)=O)NC(=O)[C@H](C)NC(=O)[C@H](CCCNC(=N)N)NC(=O)[C@H](CCCCN)NC(=O)[C@H](C)NC(=O)[C@H](CC(=O)O)NC(=O)[C@H](CC(C)C)NC(=O)[C@H](Cc1ccc(O)cc1)NC(=O)[C@H](CCCNC(=N)N)NC(=O)[C@H](CO)NC(=O)[C@H](Cc1ccc(O)cc1)NC(=O)[C@H](CC(=O)O)NC(=O)[C@H](CO)NC(=O)[C@@H](NC(=O)[C@H](Cc1ccccc1)NC(=O)[C@@H](NC(=O)CNC(=O)[C@H](Cc1c[nH]cn1)NC(=O)C(C)(C)NC(=O)[C@@H](N)Cc1c[nH]cn1)[C@@H](C)O)[C@@H](C)O)C(=O)N[C@@H](CCC(=O)O)C(=O)N[C@@H](Cc1c[nH]c2ccccc12)C(=O)N[C@@H](CC(C)C)C(=O)N[C@@H](CC(C)C)C(=O)N[C@@H](CCC(N)=O)C(=O)N[C@@H](CO)C(=O)N[C@@H](Cc1c[nH]cn1)C(=O)N[C@@H](Cc1c[nH]cn1)C(=O)N[C@@H](CCC(N)=O)C(=O)N[C@@H](Cc1c[nH]cn1)C(=O)N[C@@H](Cc1c[nH]cn1)C(=O)N1CCC[C@H]1C(=O)N[C@@H](CO)C(=O)N1CCC[C@H]1C(=O)N1CCC[C@H]1C(=O)N1CCC[C@H]1C(=O)N[C@@H](CCCCNC(=O)[C@H](CC(N)=O)NC(=O)CC[C@H](NC(=O)CCCCCCCCCCCCCCCCC(=O)O)C(=O)O)C(N)=O [Peptide G108] (H-H[Aib]HGTFTSDYSRYLDAKRAQEFIEWLLQSHHQHHPSPPPK([Asn-γGlu-C18 diacid])-NH2; N-terminus and C-terminus assumed)
[1]
  effects on weight loss and feed efficiency on SP diet supplemented with either EAAs or NEAAs: not suppressed
Lean C57BL/6 mice [2]
  expression of hepatic amino acid catabolism (urea cycle) genes: increased the expression of a number of genes involved in amino acid catabolism
  expression of hepatic gluconeogenic enzymes: increased the expression of hepatic gluconeogenic enzymes
Lean C57BL/6 mice [3]; 5 nmol/kg s.c. daily
  food intake: no effect on food intake
Lean C57BL/6 mice [3]; 10 nmol/kg s.c. daily, 18 days, n = 6/group
  food intake: sustained reduction in food intake
Lean C57BL/6 mice [3]; 20 nmol/kg s.c. daily, 18 days, n = 6/group
  food intake: sustained reduction in food intake
Lean C57BL/6 mice [4]
  blood glucose after a single dose: acute increase in blood glucose
